The source of these data is patent US10537548B2, “Composition and medical product for reducing body weight and body fat, and use of said product” (Caliway Biopharmaceuticals Co., Ltd., priority 2014, dated 2020).

The test is described as follows: Animal Experiment I, drug administration during obesity induction (high-fat diet). Type of test: in vivo, B6 female mice. Conditions: oral gavage daily, 8 weeks, compared to obesity control group. As to the method: In this experimental example, 8-week old B6 female mice were experimented and divided into a normal control group, an obesity control group, a resveratrol group (the administered dose of resveratrol was 61.5 mg/kg B.W.), a green tea extract group (the administered dose of green tea extract was 123 mg/kg B.W.), and the plant extract compositions ME001 of the present invention group (the administered dose of ME001 was 676.5 mg/kg B.W.) Five female mice were included in each group for experimentation. During the experimental period, with the exception of the normal control group, the other groups were fed with high-fat diet for eight consecutive weeks to induce obesity symptoms, and were also fed by oral gavage with the test substance daily during the same eight weeks. The obesity control group was fed by oral gavage with an equal volume of sterile water, and the difference in body weight of each group of mice was evaluated. The body weight and average food intake of each animal were recorded weekly during the experimental period. The mice were sacrificed after the experimentation. […] The data of each group are expressed as mean±SD. Letters a, b, and c indicate the results of statistical analysis, wherein different letters indicate significant statistical difference between groups (p<0.05), and identical letters indicate no significant statistical difference between groups (p>0.05).

On to `Oc1ccc(C=Cc2cc(O)cc(O)c2)cc1` [resveratrol], for which the “total body weight gain” value is listed as “did not show statistical difference”.
